In patent US9730931B2, “Pyrimidine FGFR4 inhibitors” (priority 2013, dated 2017):
Where two headings read alike, the source gives them in different places.

Test system: Hep3B xenograft
Type: in vivo

| SMILES | Tolerability (health of animals) (30 mg/kg orally twice daily) | Comparative in vivo efficacy (60 mg/kg orally twice daily) | Tolerability (health of animals) (60 mg/kg orally twice daily) | Comparative in vivo efficacy (25, 37.5 or 50 mg/kg i.p. twice daily) |
| --- | --- | --- | --- | --- |
| CCN1CCN(c2ccc(Nc3cc(N(C)C(=O)Nc4c(Cl)c(OC)cc(OC)c4Cl)ncn3)cc2)CC1 [BGJ398] | did not exhibit poor health | efficacy comparable to compound 108 | terminated on Day 11 due to poor health of animals |  |
| C=CC(=O)Nc1cc(N2CCN(CC)CC2)ccc1Nc1cc(N(C)C(=O)Nc2c(Cl)c(OC)cc(OC)c2Cl)ncn1 [Example 108, N-(2-(6-(3-(2,6-Dichloro-3,5-dimethoxyphenyl)-1-methylureido)-pyrimidin-4-ylamino)-5-(4-ethylpiperazin-1-yl)-phenyl)-acrylamide] |  |  |  | more efficacious than BGJ398 at tolerable dosage levels |
